Results on one compound are retold here after patent US20040191254A1, “Method of treatment of thyroid cancer” (priority 2001, published 2004).

For one assay, the target named is T1, RET/PTC3 (Homo sapiens, UniProt P07949).
T1 construct: expressed in transfected cells; host or cells: PCCL3 thyroid cell line (clone RET/PTC3-5), doxycycline-inducible expression
T1 sequence (P07949 with tags, fused parts or gaps): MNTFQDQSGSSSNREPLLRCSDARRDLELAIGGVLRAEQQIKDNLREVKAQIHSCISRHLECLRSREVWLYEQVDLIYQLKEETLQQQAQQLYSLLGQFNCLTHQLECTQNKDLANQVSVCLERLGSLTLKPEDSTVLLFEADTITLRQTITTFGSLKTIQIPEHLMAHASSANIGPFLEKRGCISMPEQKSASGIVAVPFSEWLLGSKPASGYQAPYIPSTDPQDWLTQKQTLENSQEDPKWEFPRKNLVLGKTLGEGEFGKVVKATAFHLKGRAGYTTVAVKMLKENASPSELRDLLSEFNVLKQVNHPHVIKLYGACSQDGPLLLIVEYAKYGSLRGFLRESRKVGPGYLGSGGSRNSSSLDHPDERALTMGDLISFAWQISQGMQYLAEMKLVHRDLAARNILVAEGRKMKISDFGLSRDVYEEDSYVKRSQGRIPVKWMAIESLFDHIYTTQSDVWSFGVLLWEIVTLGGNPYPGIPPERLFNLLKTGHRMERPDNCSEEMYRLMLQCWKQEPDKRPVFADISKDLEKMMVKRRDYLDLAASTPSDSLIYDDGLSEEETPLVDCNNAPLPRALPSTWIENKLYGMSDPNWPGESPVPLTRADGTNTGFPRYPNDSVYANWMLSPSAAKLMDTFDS
Put plainly: RET/PTC autophosphorylation, in vitro immunokinase assay of RET-IP extracts from RET/PTC3-5 cells. Type of assay: biochemical. The conditions noted are these: RET-IP extracts from RET/PTC3-5 cells treated with doxycycline for 48 h. The text has this: In order to explore the activity of a compound which decreases the activity of the EGF on RET kinase, for example, a well-differentiated clonal thyroid cell line, PCCL3, conditionally expressing either RET/PTC3 or RET/PTC1 in a tetracyclin (doxycyclin)-dependent manner as described below can be used. The activation of expression of RET/PTC1 or 3 results in dimerization, autophosphorylation, and association with a number of signaling intermediates including Shc and PLCγ. […]
Confluent T-75 flasks are washed with ice cold PBS containing 0.2 mM sodium ortho-vanadate, Cells are then lysed with cold RIPA buffer 1.8 ml (20 mM Tris, pH 7.4, 150 mM NaCl, 1% Nonidet P-40, 1% Tween 20, 20 mM sodium fluoride, 1 mM sodium ortho-vanadate, 1 mM EGTA, […], 0.2 mM PMSF, with Sigma Protease inhibitor mix) with constant agitation at 4 C for 20 min. […] Proteins are subjected to SDS-PAGE gel (7.5%), their phosphorylation measured by Phosphorimager densitometry (Molecular Dynamics, Sunnyvale, Calif.) after transfer to nitrocellulose membranes. Phosphorylation is then normalized to total RET protein in the IP determined by Western analysis using goat polyclonal anti-RET antibody (SantaCruz). […]

Another assay addresses T2, EGF-R (Homo sapiens, UniProt P00533).
T2 construct: The human squamous-cell carcinoma cell line A431 stably overexpressing the EGF-R; endogenous in cells; host or cells: A431 human squamous-cell carcinoma cells
Put plainly: EGF-R autophosphorylation, immunokinase assay of A431 cells. The format is biochemical.

A further assay has as its target T3, insulin receptor (Homo sapiens, UniProt P06213).
T3 construct: expressed in transfected cells; host or cells: CHO-wt IR cells
Put plainly: Insulin receptor autophosphorylation, immunokinase assay of CHO-wt-IR cells. Type of assay: biochemical.

Assay [1] deals with PLCγ phosphorylation by RET/PTC. Put plainly: Activation (phosphorylation) of PLCγ by RET/PTC in Ret-PTC3-5 cells. Type of assay: cell-based. As to conditions: Ret-PTC3-5 cells, doxycycline, inhibitor for 24 h; read-out: IC50 of inhibition of PLCγ phosphorylation. Here is the method:
Ret-PTC3-5 cells are seeded at 1×10^5 cells/well in 6-well Corning plates. After 3 days, cells are treated with or without doxycycline in the presence of the selected concentration of inhibitor dissolved in solvent for 24 h. Cells are rinsed twice with cold PBS containing 0.1 mM sodium orthovanadate, and left for 20 minutes in ice-cold RIPA buffer. Cell lysates are collected by centrifugation at 4C, and pelletted at 10,000×g for 20 min. Protein assays are performed on aliquots of supernatants by the Coomassie Blue assay (Pierce, Rockford, Ill.). 650 μg of protein are incubated with anti-PLC γ antibody (SantaCruz) or normal IgG overnight. The immune complexes are precipitated with proteinAG agarose (Santa Cruz) previously washed with RIPA buffer as described. After three washes with RIPA buffer, precipitates are eluted into 30 μl sample buffer, heated 10 min at 95 C, and ran on SDS-PAGE gel for Western blot analysis. Blots are initially probed with anti-phosphotyrosine. Loading is normalized by probing with anti-PLC γ antibody (SantaCruz).
It was shown before that upon activation, RET associates with and phosphorylates PLCγ. To further explore the effects of PKI166 on RET kinase activity, the impact of pretreatment with the compound on PLCγ phosphorylation is examined. When grown in the absence of doxycycline, there is no detectable PLCγ phosphorylation. […]

The next assay concerns NIH3T3-RETC634Y cells. Put plainly: Growth of NIH3T3 cells expressing constitutively active RET Cys634Tyr. The format is cell-based. The conditions noted are these: 20 nM or 30 nM for 9 days, 5% or 1% serum (FIG. 1). On the procedure: (§1) The indicated cell lines are allowed to plate overnight in 6-well plates (NIH3T3 cells at 5×10^4; 3T3-RETC634Y at 2×10^4). They are then grown in the presence of no PKI166, 20 nM PKI166 or 30 nM PKI166 for 9 days, with media changes every 3 days. Bars represent the X±SD of cell counts in 3 independent experiments. The first three columns show the results in NIH3T3-RetCys634Tyr in 5% serum, the next three columns show the results in NIH3T3-RetCys634Tyr in 1% serum and the last two columns the results in NIH3T3 in 5% serum (only vehicle and 30 nM PKI 166).
(§2) […] is the most common germine mutation of RET in multiple endocrine neoplasia type 2A stably expressing a constitutively active form of RET. NIH3T3-RETC634Y cells are transformed, as evidenced by growth in low serum conditions, colony formation in soft agar, and tumor formation in nude mice. […] PKI166 has no effect on growth of wild-type NIH3T3 cells grown in 5% serum (FIG. 1).

The subject of another assay is wild-type NIH3T3 cells. The assay is described as follows: Growth of wild-type NIH3T3 cells. The format is cell-based. The conditions noted are these: 5% serum; 30 nM, 9 days (FIG. 1). Here is the method:
as §1, §2

Structures are written as SMILES. “Also recorded” adds a separate entry of the source.

T2 sequence (P00533 25-1210): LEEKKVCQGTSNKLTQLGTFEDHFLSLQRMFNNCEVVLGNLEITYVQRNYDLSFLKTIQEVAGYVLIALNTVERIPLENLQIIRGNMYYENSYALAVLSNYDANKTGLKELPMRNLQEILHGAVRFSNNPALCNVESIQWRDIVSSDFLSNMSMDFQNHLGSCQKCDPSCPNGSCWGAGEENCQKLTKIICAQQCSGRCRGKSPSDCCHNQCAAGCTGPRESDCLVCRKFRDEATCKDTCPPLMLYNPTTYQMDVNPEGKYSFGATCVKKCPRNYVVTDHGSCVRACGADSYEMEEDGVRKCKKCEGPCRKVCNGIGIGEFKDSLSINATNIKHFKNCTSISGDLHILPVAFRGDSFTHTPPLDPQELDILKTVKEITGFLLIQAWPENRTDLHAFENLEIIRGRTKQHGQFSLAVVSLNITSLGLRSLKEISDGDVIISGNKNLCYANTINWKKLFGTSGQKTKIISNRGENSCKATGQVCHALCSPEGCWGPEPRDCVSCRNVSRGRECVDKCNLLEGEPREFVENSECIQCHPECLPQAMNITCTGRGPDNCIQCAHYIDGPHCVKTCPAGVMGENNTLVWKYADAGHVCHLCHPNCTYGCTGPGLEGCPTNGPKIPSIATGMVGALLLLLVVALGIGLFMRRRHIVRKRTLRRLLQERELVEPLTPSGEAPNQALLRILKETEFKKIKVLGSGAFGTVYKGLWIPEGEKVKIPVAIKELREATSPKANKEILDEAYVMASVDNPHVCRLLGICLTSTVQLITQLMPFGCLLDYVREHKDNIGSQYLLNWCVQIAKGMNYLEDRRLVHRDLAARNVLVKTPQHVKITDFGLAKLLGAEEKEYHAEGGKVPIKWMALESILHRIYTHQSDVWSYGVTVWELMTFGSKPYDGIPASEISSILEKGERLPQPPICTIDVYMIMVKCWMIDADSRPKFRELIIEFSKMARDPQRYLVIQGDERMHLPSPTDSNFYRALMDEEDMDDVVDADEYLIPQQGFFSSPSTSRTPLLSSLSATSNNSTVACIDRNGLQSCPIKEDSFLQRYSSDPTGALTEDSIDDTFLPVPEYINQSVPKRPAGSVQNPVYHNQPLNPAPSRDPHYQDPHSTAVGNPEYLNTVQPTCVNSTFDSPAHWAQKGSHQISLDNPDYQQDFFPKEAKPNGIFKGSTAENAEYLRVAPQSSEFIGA
T3 sequence (P06213 28-1382, species assumed): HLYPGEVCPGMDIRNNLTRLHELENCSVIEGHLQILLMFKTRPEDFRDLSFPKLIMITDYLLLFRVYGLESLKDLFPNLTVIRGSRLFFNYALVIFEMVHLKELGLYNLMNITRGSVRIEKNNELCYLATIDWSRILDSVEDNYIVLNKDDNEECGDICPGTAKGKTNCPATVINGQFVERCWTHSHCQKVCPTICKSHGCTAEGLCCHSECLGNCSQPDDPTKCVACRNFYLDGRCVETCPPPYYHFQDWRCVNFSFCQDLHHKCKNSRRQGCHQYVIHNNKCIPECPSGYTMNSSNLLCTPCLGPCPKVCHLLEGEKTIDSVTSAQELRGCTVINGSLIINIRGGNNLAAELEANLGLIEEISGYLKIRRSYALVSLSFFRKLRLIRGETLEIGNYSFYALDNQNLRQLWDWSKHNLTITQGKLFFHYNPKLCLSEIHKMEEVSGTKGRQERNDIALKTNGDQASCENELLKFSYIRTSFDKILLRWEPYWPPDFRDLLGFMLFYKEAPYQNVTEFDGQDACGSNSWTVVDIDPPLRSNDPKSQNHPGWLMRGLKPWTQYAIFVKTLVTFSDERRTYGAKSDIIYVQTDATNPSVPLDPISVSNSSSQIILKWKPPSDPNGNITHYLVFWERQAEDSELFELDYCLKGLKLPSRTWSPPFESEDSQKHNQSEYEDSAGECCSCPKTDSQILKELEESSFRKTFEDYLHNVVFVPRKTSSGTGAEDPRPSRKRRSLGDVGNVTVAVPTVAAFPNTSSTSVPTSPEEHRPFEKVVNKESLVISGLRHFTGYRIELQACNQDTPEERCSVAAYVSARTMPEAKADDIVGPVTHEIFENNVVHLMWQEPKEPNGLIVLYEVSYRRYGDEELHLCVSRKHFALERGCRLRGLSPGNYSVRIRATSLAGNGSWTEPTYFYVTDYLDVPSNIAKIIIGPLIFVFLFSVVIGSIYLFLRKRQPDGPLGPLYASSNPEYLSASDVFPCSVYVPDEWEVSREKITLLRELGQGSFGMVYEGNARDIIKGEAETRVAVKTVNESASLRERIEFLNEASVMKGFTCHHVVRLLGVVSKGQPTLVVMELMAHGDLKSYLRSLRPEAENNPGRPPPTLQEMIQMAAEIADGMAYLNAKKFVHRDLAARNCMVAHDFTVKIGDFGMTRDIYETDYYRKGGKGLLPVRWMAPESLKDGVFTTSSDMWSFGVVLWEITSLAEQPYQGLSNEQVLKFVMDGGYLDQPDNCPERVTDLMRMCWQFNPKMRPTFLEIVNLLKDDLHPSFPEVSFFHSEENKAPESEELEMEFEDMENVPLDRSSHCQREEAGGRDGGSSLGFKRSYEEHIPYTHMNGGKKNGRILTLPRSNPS

As usually defined, the IC50 is the concentration needed to halve the response being measured. For `C[C@@H](Nc1ncnc2[nH]c(-c3ccc(O)cc3)cc12)c1ccccc1` [PKI166, (R)-6-(4-hydroxy-phenyl)-4-[(1-phenyl-ethyl)-amino]-7H-pyrrolo[2,3-d]-pyrimidine], the IC50 against RET/PTC3 is ~17.7 nM; on EGF-R, 8 nM; in assay [1], ~4 nM. In addition, at insulin receptor, the “effect on insulin receptor autophosphorylation” value is “no effects”. Also, in the assay on NIH3T3-RETC634Y cells, the “inhibition of cell growth of RET-transformed fibroblasts” value is given as “inhibits the growth; also recorded: powerful, concentration dependent inhibition of cell growth”. The “effect on growth of wild-type NIH3T3 cells” value with wild-type NIH3T3 cells is listed as “no effect”.
